Assay results from patent US8703801B2, “Pyridinone hydroxycyclopentyl carboxamides: HIV integrase inhibitors with therapeutic applications” (University of Georgia Research Foundation, Inc., priority 2009, dated 2014).

Test system: HIV
Assay: anti-HIV activity in cell culture
Format: cell-based
Details: Human immunodeficiency virus 1, in vitro

Structure (SMILES)	EC50 [nM]
O=C(NN1CCCC1=O)/C(O)=C/C(=O)c1cc(Cc2c(F)cccc2F)cn(Cc2ccccc2F)c1=O [FIG. 1b]	10
O=C(N[C@H]1CCC[C@@H]1O)/C(O)=C/C(=O)c1cc(Cc2ccc(F)cc2F)cn(Cc2ccccc2F)c1=O [FIG. 1a]	25
